Experimental data as given in US6489340B1, “Macrolide compounds for inducing chondrogenic differentiation” (Fujisawa Pharmaceutical., Ltd., priority 1999, dated 2002).

Tested on: ATDC5 cells
Assay: Induction of chondrogenic differentiation of ATDC5 cells (Alcian blue staining, proteoglycan amount)
Format: cell-based
Conditions: ATDC5 cells incubated 24 days; Alcian blue dye measured at 620 nm; FK506 1-1000 ng/ml
Experimental: The inducing activity by FK506 Substance on chondrogenic differentiation was evaluated in accordance with the below-mentioned method. (1) The ATDC5 cell line provided by RIKEN Cell Bank (Tsukuba, Japan) was grown in a 1:1 mixture of Dulbecco's modified Eagle's medium and Ham's F12 medium (Nikken Biomedical Laboratory, Kyoto, Japan) supplemented with 10 % heat-inactivated fetal bovine serum (Intergen, Purchase, N.Y.). […] (2) The above ATDC5 cells were plated in 12-multiwell plastic plate at a density of 1×10^5 cells/well in the medium. After 4 hr, the medium was replaced with fresh medium containing FK506 or Cyclosporin A (CsA), and the culture was continued for a 24 days with medium change every 2 or 3 days. Cells were fixed with methanol and stained 0.1% Alcian blue (Sigma Chemical Co., St. Louis, Mo.) dissolved in 0.1 M hydrochloric acid for 16 hr at room temperature. Cells were then rinsed three times with distilled water, and the amount of cell-associated dye was measured at 620 nm after extraction with 6 M guanidine-HCl (300 μl/well). ATDC5 cells were incubated with FK506 or CsA for 24 days and the amount of proteoglycan was assayed.

Row | Molecule | inducing activity on chondrogenic differentiation (differentiation into chondrocyte; amount of proteoglycan)
1 | C=CC[C@@H]1/C=C(\C)C[C@H](C)C[C@H](OC)[C@H]2O[C@@](O)(C(=O)C(=O)N3CCCC[C@H]3C(=O)O[C@H](/C(C)=C/[C@@H]3CC[C@@H](O)[C@H](OC)C3)[C@H](C)[C@@H](O)CC1=O)[C@H](C)C[C@@H]2OC [FK506, 17-allyl-1,14-dihydroxy-12-[2-(4-hydroxy-3-methoxycyclohexyl) -1-methylvinyl]-23,25-dimethoxy-13,19,21,27-tetramethyl-11, 28-dioxa-4-azatricyclo [22.3.1.0^4,9]octacos-18-ene-2,3,10,16-tetraone] | induced differentiation into chondrocyte in a concentration-dependent manner
2 | Cyclosporin A [CsA] | did not induce the differentiation
